Data on 48 compounds can be found in ChEMBL document CHEMBL1201862, “PubChem BioAssay data set” (2004).

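Step 1: Grow cells in 96-well plates. Step 2: Expose to compound for 48 hours at 5 concentrations. Step 3: Interpolate endpoints linearly; if unreached, use highest concentration. Abbreviation: GI50, concentration required for 50% inhibition of growth.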 The source made the active and inactive calls. Rule as the data show it: active = GI50 up to about 1.1 µM and inactive = higher. Where a SMILES comes first, the peptide text is derived from it. Bridges are numbered along the chain shown (N, C = ends). The star is where a group is joined. Cbz = O=C(OCc1ccccc1)*

Some test systems named below: T47D; Hs-578T; KM-20L2; M19-MEL; LXFL 529.
Test in all cases: growth of human tumour cells (NCI), 48 h

Turning to `S=C(Nc1ccccc1)c1ccc(CN2CCCCC2)s1`, the results for the GI50 with T47D and in the assay with Hs-578T were 26.4 µM (inactive) and 25.3 µM (inactive), respectively.
As for `O=C(O)C1C(=O)Oc2c(cccc2[N+](=O)[O-])C1O` (stereo unspecified), the GI50 with T47D and in the assay with Hs-578T was > 100 µM (inactive) in each case.
For the compound `CCOS(C)(=O)=O` [METHANESULFONIC ACID ETHYL ESTER], the GI50 in the assay with T47D and with Hs-578T was > 100 µM (inactive) throughout.
Consider `COc1ccc(/N=C2/C(=N/c3ccc(OC)cc3)N(c3ccccc3)C(=S)N2N=C=C2Sc3ccccc3N2C)cc1`, for which the GI50 with T47D and with Hs-578T was > 100 µM (inactive) in each case.
With `COc1ccc(/C=C/C(=O)Oc2cc(O)cc(O)c2)cc1`, the GI50 with T47D is 43.5 µM (inactive).
Consider `Cc1nc(-n2nc(-c3ccccc3)cc2-c2ccccc2)sc1C(/C=C/c1ccc([N+](=O)[O-])cc1)=N/NC(=O)c1ccncc1`, for which the values for the GI50 in the assay on KM-20L2, in the assay on M19-MEL and in the assay on LXFL 529 were 19.4 µM (inactive), 25.4 µM (inactive) and 12.7 µM (inactive), respectively.
In the case of `Nc1nc(-c2cccs2)cs1`, the GI50 with T47D was 66.8 µM (inactive); in the assay with Hs-578T, 37.9 µM (inactive).
For `CC(=O)NC1C(Sc2ncn(C3OC(CO)C(O)C(O)C3NC(C)=O)n2)OC(CO)C(O)C1O` (stereo unspecified), in that order: > 100 µM (inactive) and > 100 µM (inactive).
As to `N#Cc1c2c(c(Nc3ccc(F)cc3)n3c1nc1ccccc13)CCC2`, in the assay on T47D, the GI50 is 7.8 µM (inactive).
Consider `Cc1cc2c(SCc3ccccc3Cl)nc(N)nc2nc1C`, for which the results for the GI50 with T47D and in the assay on Hs-578T were > 100 µM (inactive) and 36.3 µM (inactive), respectively.
As to `CC(=O)OC1CC[C@@]2(C)C(=CC[C@@H]3[C@@H]2CC[C@]2(C)Nc4c(cnn4-c4ccc(F)cc4)C[C@@H]32)C1` (stereo partly specified), the GI50 with T47D is 14.9 µM (inactive); in the assay on Hs-578T, 14.1 µM (inactive).
For `N#Cc1c(=O)c2cc([N+](=O)[O-])ccc2n2c1[nH]c1ccccc12` the same measures were 4.44 µM (inactive) and 3.44 µM (inactive).
For the compound `N#CC1CNC(N)NC1N` (stereo unspecified), the GI50 in the assay on T47D and in the assay on Hs-578T was > 100 µM (inactive) each time.
Take `O=[N+]([O-])c1ccc(C2c3c(O)nc(S)nc3Oc3nc(S)nc(O)c32)cc1`: the GI50 with T47D and in the assay with Hs-578T was > 100 µM (inactive) in each case.
On to `O=C1/C(=C/c2ccc(O)c(O)c2)CC/C1=C\c1ccc(O)c(O)c1`, for which, in the assay with T47D, the GI50 was 4.66 µM (inactive).
With `C[P+](c1ccccc1)(c1ccc(Cl)cc1)c1ccc(Cl)cc1`, the GI50 with T47D is 7.6 µM (inactive); in the assay on Hs-578T it was 20.7 µM (inactive).
Consider `CC12CC(=O)C3C(CCC4=CC(=O)CCC43C)C1CC=C2CC(=O)O` (stereo unspecified), for which the GI50 in the assay with T47D and in the assay on Hs-578T was > 100 µM (inactive) throughout.
Regarding `CCCC(=O)NC1CCc2cc(OC)c(OC)c(OC)c2-c2ccc(OC)c(=O)cc21` (stereo unspecified), in the assay with Hs-578T, the GI50 is 0.000237 µM (active).
As to `O=C1NC(N2CCOCC2)=N/C1=C\c1ccc(O)cc1`, the GI50 with T47D was > 100 µM (inactive); in the assay on Hs-578T it was 4.84 µM (inactive).
Take `O=[N+]([O-])/C=C/c1ccc2ccccc2c1`: the GI50 is 0.692 µM (active) in the assay with T47D and 4.44 µM (inactive) in the assay with Hs-578T.
Consider `c1ccc(-c2nc3ccccc3n3c(CN4CCCCC4)nnc23)cc1`, for which the GI50 in the assay with T47D is 54.5 µM (inactive); in the assay with Hs-578T, 69.2 µM (inactive).
For the compound `Cn1c(=O)c2c(nc(Nc3ccc(Cl)cc3)n3c(=O)n(-c4ccccc4)c(=O)n23)n(C)c1=O`, the GI50 in the assay with T47D and in the assay on Hs-578T was > 100 µM (inactive) each time.
Turning to `CCOP(=O)(O)C1C(CO)OC(n2ccc(=O)[nH]c2=O)C1O` (stereo unspecified), the GI50 with T47D and with Hs-578T was > 100 µM (inactive) each time.
Take `CCCCCCCCC[C@@H]1C[C@@H]2CCC3C(C(=O)OC)=C(C)N=C(N1)N32` (stereo partly specified): the GI50 in the assay with T47D is 10.6 µM (inactive); with Hs-578T, 4.66 µM (inactive).
For `[O-][S+](Nc1ccccc1)c1ccc(Cl)cc1` (stereo unspecified) the same measures were 50.1 µM (inactive) and 38.1 µM (inactive).
As to `CC(=O)OC[C@H]1O[C@@H](O[C@H]2[C@H](OC(C)=O)C=CO[C@@H]2COC(C)=O)C(OC(C)=O)[C@H]2OC(C)(C)O[C@H]21` (stereo partly specified), the GI50 in the assay on T47D is 64.4 µM (inactive); in the assay on Hs-578T it was 32.1 µM (inactive).
`O=[N+]([O-])c1ccc2c(c1)C1=C(CO2)Cc2ccccc2O1`: the GI50 in the assay with T47D was 10.9 µM (inactive).
In the case of `S=C(NN=C1NCCCCN1)Nc1ccc(Cl)cc1`, the GI50 in the assay with T47D was 39.8 µM (inactive); with Hs-578T, 60 µM (inactive).
Take `COC(=O)C1CCCCNC(=O)CCC(NC(=O)OCc2ccccc2)C(=O)N1` (stereo not drawn) (Cbz-Glu-Lys-OMe; lactam 1-2; configuration not given here): the GI50 in the assay on T47D was > 100 µM (inactive); in the assay on Hs-578T, 65.9 µM (inactive).
Consider `Cc1c(OCc2cccc3ccccc23)ccc2c(=O)cc(SCCN3CCOCC3)oc12`, for which the GI50 in the assay on T47D and in the assay with Hs-578T was > 100 µM (inactive) throughout.
Consider `CCc1nc(N)nc(N)c1-c1ccc([N+](=O)[O-])c(Cl)c1`, for which the GI50 in the assay on T47D is 39.5 µM (inactive); with Hs-578T, 32.4 µM (inactive).
As to `CC1(C)[C@@H]2CC[C@@]1(C)CN(CCC[N+](C)(C)C)C2`, the GI50 with T47D and in the assay on Hs-578T was > 100 µM (inactive) each time.
Turning to `CCCSc1ccc2[nH]c(N3C(=O)/C(=C/c4ccccc4)N=C3c3ccccc3)cc2c1`, the GI50 in the assay on T47D is 22.8 µM (inactive); with Hs-578T, 20.3 µM (inactive).
Regarding `CCC(=O)NI1OC(=O)c2ccccc21`, the GI50 with T47D is > 100 µM (inactive).
Take `CO[C@@]12C[C@@H](CNC(=O)c3cc(Br)c[nH]3)O[C@@H]1NC(=O)N2`: the GI50 in the assay with T47D and in the assay on Hs-578T was > 100 µM (inactive) in each case.
`Cc1ccc(/S(Cc2ccccc2)=N\S(=O)(=O)c2ccc(C)cc2)cc1` (stereo unspecified): the GI50 in the assay on T47D was > 100 µM (inactive).
Consider `CCOC(=O)/C(=C\c1cccc(C)c1)C(C)=O`, for which the GI50 is 11.1 µM (inactive) with T47D and 20.7 µM (inactive) with Hs-578T.
As for `CC(C)=CC1C(COC(=O)c2cc3c(cc2Cl)OCO3)C1(C)C` (stereo unspecified), the GI50 with T47D was 39.1 µM (inactive); in the assay on Hs-578T, 13.1 µM (inactive).
For the compound `Cc1cc(C)c(C2CC(O)C(CO)O2)cc1C` (stereo unspecified), the GI50 with Hs-578T is > 100 µM (inactive).
Turning to `COc1cc2c(cc1O)C(=O)O[C@@H]1CC=C3CCN(C)[C@H]3[C@H]21`, the GI50 with T47D and in the assay on Hs-578T was > 25 µM (inactive) throughout.
As to `O=C1c2ccccc2S(=O)(=O)c2c1cccc2[N+](=O)[O-]`, the GI50 in the assay on T47D is 2.37 µM (inactive); in the assay with Hs-578T, 4.25 µM (inactive).
Consider `Cc1ccc2c(c1)C=CC(C#N)N2C(=O)Oc1ccccc1` (stereo unspecified), for which the results for the GI50 in the assay on T47D and with Hs-578T were 20.8 µM (inactive) and 41.6 µM (inactive), respectively.
For `NNC(=O)c1cc([N+](=O)[O-])ccc1NC(=O)C12CC3CC(CC(C3)C1)C2` the same measures were 10 µM (inactive) and 5.66 µM (inactive).
For `O=C1N/C(=N/N=C/c2ccccc2)N/C1=C\c1c[nH]c2ccccc12` the same measures were > 100 µM (inactive) and > 100 µM (inactive).
Consider `Cc1cn2c(C)csc2c1P(=O)(OC(C)C)OC(C)C`, for which the GI50 in the assay with Hs-578T was > 100 µM (inactive).
In the case of `CCNc1ncnc2nn[nH]c12`, the GI50 in the assay on T47D was > 100 µM (inactive).
In the case of `O=[N+]([O-])/C(C(Cl)=C(Cl)Cl)=C1\Nc2ccc([N+](=O)[O-])cc2N1`, the GI50 with T47D is > 100 µM (inactive).
Take `CCC(=O)C(CCN1CCC(N2C(=O)C(CCC#N)c3ccccc32)CC1)(c1ccccc1)c1ccccc1` (stereo unspecified): the GI50 in the assay on T47D is 7.85 µM (inactive); in the assay with Hs-578T, 9.57 µM (inactive).
